Assay results reported in patent US20080188654A1, “Compounds for treatment of inflammation, diabetes and related disorders” (Theracos, Inc., priority 2001, published 2008).

Key:
[1] = test system: 3T3-L1 adipocytes; experiment: Insulin-stimulated glucose uptake in 3T3-L1 adipocytes; type: cell-based, mouse; settings: 5 μM, 48 hours; compared to vehicle; FIG. 2
[2] = test system: IL-1 beta; experiment: Inhibition of LPS-induced IL-1 beta production in RAW264.7 cells (ELISA); type: cell-based, mouse
[3] = test system: COX-1; experiment: COX-1 production in LPS-stimulated RAW264.7 cells (Western blot); type: cell-based, mouse; settings: FIG. 8
[4] = test system: iNOS; experiment: Inhibition of LPS-induced iNOS production in RAW264.7 cells (Western blot); type: cell-based, mouse; settings: 10, 30 or 100 μM; FIG. 8
[5] = test system: COX-2; experiment: Inhibition of LPS-induced COX-2 production in RAW264.7 cells (Western blot); type: cell-based, mouse; settings: LPS-stimulated cells; FIG. 8
[6] = test system: IL-6; experiment: Inhibition of LPS-induced IL-6 production in RAW264.7 cells (ELISA); type: cell-based, mouse
[7] = test system: ob/ob mice; experiment: Lipid-lowering effects in ob/ob mice; type: in vivo, mouse; settings: 10 mg/kg daily oral, day 8, versus vehicle, p<0.05
[8] = test system: TNF-alpha; experiment: Inhibition of LPS-induced TNF-alpha production in RAW264.7 cells (ELISA); type: cell-based, mouse
[9] = test system: ob/ob mice; experiment: Glucose-lowering effect in ob/ob mice; type: in vivo, mouse; settings: 10 mg/kg daily oral, p<0.05
[10] = test system: 3T3-L1 differentiated adipocytes; experiment: Glucose uptake in 3T3-L1 adipocytes (14C-deoxyglucose); type: cell-based, mouse; settings: different concentrations, 48 hours; percentage of basal; FIG. 1
[11] = test system: PDE4 partially purified from human U-937 promonocytic cells; experiment: Inhibition of PDE4 enzyme activity; type: biochemical
[12] = test system: mouse mesenteric lymph node cells; experiment: Inhibition of anti-CD3/anti-CD28 stimulated lymphocyte proliferation; type: cell-based
[13] = test system: p44/42 MAP kinase; experiment: Inhibition of phosphorylation of p44/42 MAP kinase in RAW 264.7 gamma NO(-) cells (Western blot); type: cell-based, mouse; settings: for inhibition of LPS-induced phosphorylation of p44/42 MAP kinase: 10 ng/ml LPS
[14] = test system: TNF-alpha; experiment: Inhibition of LPS-induced TNF-alpha release by human monocytes; type: cell-based; settings: Monocyte, read-out: Percent Inhibition of TNF-alpha Release
[15] = target: T1, PDE3 partially purified from human platelets (Homo sapiens, UniProt Q14432); experiment: Inhibition of PDE3 enzyme activity; type: biochemical; settings: read-out: Percent Inhibition of Enzyme Activity
T1 construct: PDE3 partially purified from human platelets were used; from tissue; host or cells: human platelets (partially purified enzyme)
T1 sequence (Q14432 whole entry): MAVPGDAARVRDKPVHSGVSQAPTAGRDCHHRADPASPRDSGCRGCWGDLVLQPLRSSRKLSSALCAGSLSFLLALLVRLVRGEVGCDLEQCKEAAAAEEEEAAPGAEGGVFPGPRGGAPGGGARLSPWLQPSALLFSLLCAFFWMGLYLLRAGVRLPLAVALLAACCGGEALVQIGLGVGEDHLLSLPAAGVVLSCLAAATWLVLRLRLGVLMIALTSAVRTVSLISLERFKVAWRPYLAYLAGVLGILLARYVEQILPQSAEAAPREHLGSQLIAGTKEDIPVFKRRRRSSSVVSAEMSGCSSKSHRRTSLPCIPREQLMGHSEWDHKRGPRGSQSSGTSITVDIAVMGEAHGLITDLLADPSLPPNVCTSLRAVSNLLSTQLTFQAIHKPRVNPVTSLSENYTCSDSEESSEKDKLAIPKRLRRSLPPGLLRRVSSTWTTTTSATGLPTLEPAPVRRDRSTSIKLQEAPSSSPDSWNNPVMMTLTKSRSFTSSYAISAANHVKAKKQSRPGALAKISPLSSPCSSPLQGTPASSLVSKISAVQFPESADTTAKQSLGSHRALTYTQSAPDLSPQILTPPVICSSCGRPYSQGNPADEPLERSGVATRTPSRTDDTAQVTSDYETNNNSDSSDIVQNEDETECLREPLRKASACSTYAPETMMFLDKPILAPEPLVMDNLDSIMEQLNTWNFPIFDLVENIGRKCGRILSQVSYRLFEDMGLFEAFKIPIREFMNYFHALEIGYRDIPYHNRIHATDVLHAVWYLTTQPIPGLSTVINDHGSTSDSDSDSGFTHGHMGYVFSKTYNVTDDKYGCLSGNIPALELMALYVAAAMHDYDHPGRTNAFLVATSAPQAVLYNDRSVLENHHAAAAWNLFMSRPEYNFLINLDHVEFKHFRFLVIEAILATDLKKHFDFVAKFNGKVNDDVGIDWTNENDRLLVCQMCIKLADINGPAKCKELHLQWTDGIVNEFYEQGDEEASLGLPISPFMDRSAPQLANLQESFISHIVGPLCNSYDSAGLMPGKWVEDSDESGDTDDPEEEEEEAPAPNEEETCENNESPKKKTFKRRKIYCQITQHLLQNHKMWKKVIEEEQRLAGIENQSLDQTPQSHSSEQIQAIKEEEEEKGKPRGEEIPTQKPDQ

[16] = test system: DBA/1J mice; experiment: Collagen-induced arthritis in mice; type: in vivo, mouse
[17] = test system: TNF-alpha; experiment: Inhibition of LPS-induced TNF-alpha production in mice; type: in vivo, mouse; settings: for Percent TNF Production (Mean ± SEM): plasma 1 h after LPS, vehicle = 100%, p < 0.05; for inhibition of LPS-induced TNF-alpha production in mice: 50 or 100 mg/kg oral
[18] = test system: human elutriated monocytes; experiment: Cell viability of human monocytes (MTS/PMS assay); type: cell-based; settings: 30 μM, 20 h
[19] = high dose, 100 mg/kg oral twice daily 14 days

COC(=O)C(=Cc1cc(OC)cc(OC)c1)c1ccc(Oc2ccc(CCC(=O)NC(N)=O)cc2)cc1 [Compound 1, 3-(3,5-dimethoxyphenyl)-2-{4-[4-(3-oxo-3-ureidopropyl)-phenoxy]-phenyl}-acrylic acid methyl ester]
stimulation of glucose uptake by insulin [1]: enhanced the stimulation of glucose uptake by insulin | inhibition of LPS-induced IL-1 beta production ([2]; 10, 30 or 100 μM, FIG. 6): significantly inhibited | inhibition of IL-1 beta compared with dexamethasone ([2]; versus 1 μM dexamethasone): of the same approximate magnitude as that seen with dexamethasone | inhibition of COX-1 production [3]: not COX-1 | inhibition of LPS-induced iNOS production [4]: dose-dependent inhibition | inhibition of COX-2 production [5]: selectively inhibited production of COX-2 | inhibition of LPS-induced IL-6 production ([6]; 10, 30 or 100 μM, FIG. 7): significantly inhibited | inhibitory effect on IL-6 compared with dexamethasone ([6]; versus 1 μM dexamethasone): greater than that observed with dexamethasone | free fatty acids lower [7]: 19% | serum triglycerides lower [7]: 49% | inhibition of LPS-induced TNF-alpha production ([8]; 10, 30 or 100 μM, FIG. 5): significantly inhibited | inhibitory effect on TNF-alpha compared with dexamethasone ([8]; versus 1 μM dexamethasone): approached that seen with dexamethasone | decrease in blood glucose levels ([9]; day 6, versus vehicle): 36% | decrease in blood glucose levels ([9]; day 8, versus vehicle): 23% | glucose uptake [10]: dose-dependent increase in glucose uptake

COc1cc(/C=C(/C(=O)N(C)C)c2ccc(Oc3ccc(CCC(=O)NC(N)=O)cc3)cc2)cc(OC)c1 [Compound 13, 3-(3,5-dimethoxyphenyl)-N,N-dimethyl-2-{4-[4-(3-oxo-3-ureido-propyl)-phenoxy]-phenyl}-acrylamide]
IC50 ([11]; PDE4): < 1000 nM | Percent Inhibition of Enzyme Activity ([11]; PDE4, 1 μM): 85% | Percent Inhibition of Enzyme Activity ([11]; PDE4, 10 μM): 98% | Percent Inhibition of Enzyme Activity ([11]; PDE4, 30 μM): 102% | O.D. (Mean ± SD) ([12]; 10 μM + anti-CD3/anti-CD28 mAbs, 67 h, MTS/PMS, 505 nm): 0.578 ± 0.012 | inhibition at 10 µM ([12]; Mus musculus, Lymphocyte, 10 μM, stimulated by anti-CD3/anti-CD28 monoclonal antibodies): ~50% | inhibition of LPS-induced phosphorylation of p44/42 MAP kinase ([13]; 10 μM): not | inhibition of LPS/IFN-gamma induced phosphorylation of p44/42 ([13]; 30 μM and 10 μM, LPS (10 ng/ml)/IFN-gamma (10 U/ml)): inhibited LPS/IFN-gamma induced phosphorylation of p44/42 in a dose-dependent manner | inhibition of LPS-induced phosphorylation of p44/42 MAP kinase ([13]; 30 μM): inhibited | inhibition at 0.3 µM [14]: 15% | inhibition at 1 µM [14]: 40% | inhibition at 3 µM [14]: 70% | inhibition at 10 µM [14]: 78% | inhibition at 30 µM [14]: 78% | inhibition at 1 µM ([15]; PDE3, 1 μM): 20% | inhibition at 10 µM ([15]; PDE3, 10 μM): 52% | inhibition at 30 µM ([15]; PDE3, 30 μM): 55%

COc1cc(/C=C(/C(=O)N(C)C)c2ccc(Oc3ccc(CCC(N)=O)cc3)cc2)cc(OC)c1 [Compound 31, 2-{4-[4-(2-carbamoylethyl)-phenoxy]-phenyl}-3-(3,5-dimethoxyphenyl)-N,N-dimethylacrylamide]
arthritis clinical score (severity) [16, 19]: prevented the increase in severity | histology of hind limbs [16, 19]: reduction in incidence and severity of pannus formation, inflammation cell infiltration and bone/cartilage damage | histology of hind limbs ([16]; low dose, 40 mg/kg oral twice daily 14 days): marked chronic inflammation of synovium with pannus formation and destruction of bone and cartilage | arthritis clinical score (severity) ([16]; low dose, 40 mg/kg oral twice daily 14 days, compared with vehicle): no apparent effect | Percent TNF Production (Mean ± SEM) ([17]; 50 mg/kg oral): 68 ± 11% | Percent TNF Production (Mean ± SEM) ([17]; 100 mg/kg oral): 53 ± 20% | inhibition of LPS-induced TNF-alpha production in mice [17]: significantly inhibited | inhibition at 1 µM [14]: 51% | inhibition at 3 µM [14]: 73% | inhibition at 10 µM [14]: 83% | inhibition at 30 µM [14]: 86%

CCOC(=O)CCc1ccc(Oc2ccc(/C(=C\c3cc(OC)cc(OC)c3)C(=O)N(C)C)cc2)cc1 [Compound 37, 3-(4-{4-[2-(3,5-dimethoxyphenyl)-1-dimethylcarbamoylvinyl]-phenoxy}-phenyl)-propionic acid ethyl ester]
inhibition at 1 µM [14]: 17% | inhibition at 3 µM [14]: 38% | inhibition at 10 µM [14]: 65% | inhibition at 30 µM [14]: 78%

COc1cc(/C=C(/C(=O)N(C)C)c2ccc(NC(=O)c3cccc(O)c3)cc2)cc(OC)c1 [Compound 44, N-{4-[2-(3,5-dimethoxyphenyl)-1-dimethylcarbamoylvinyl]-phenyl}-3-hydroxybenzamide]
inhibition at 0.3 µM [14]: 32% | inhibition at 3 µM [14]: 67% | inhibition at 30 µM [14]: 91%

COc1cc(/C=C(/C(=O)N(C)C)c2ccc(O)cc2)cc(OC)c1 [Compound 49, 3-(3,5-dimethoxyphenyl)-2-(4-hydroxyphenyl)-N,N-dimethylacrylamide]
inhibition at 3 µM [14]: 14% | inhibition at 10 µM [14]: 47% | inhibition at 30 µM [14]: 54%

COc1cc(/C=C(/C(=O)N2CCCCC2)c2ccc(Oc3ccc(CCC(=O)NC(N)=O)cc3)cc2)cc(OC)c1 [Compound 51, [3-(4-{4-[2-(3,5-dimethoxyphenyl)-1-(piperidine-1-carbonyl)-vinyl]-phenoxy}-phenyl)-propionyl]-urea]
Cell viability [18]: * (Cell viability <70%) | inhibition at 3 µM [14]: 25% | inhibition at 10 µM [14]: 57%

CC(=O)NC(=O)CCc1ccc(Oc2ccc(/C(=C\c3ccc(F)cc3)C(=O)N(C)C)cc2)cc1 [Compound 56, 2-{4-[4-(3-acetylamino-3-oxopropyl)-phenoxy]-phenyl}-3-(4-fluorophenyl)-N,N-dimethylacrylamide]
inhibition at 0.3 µM [14]: 1% | inhibition at 3 µM [14]: 6% | inhibition at 30 µM [14]: 54%

COc1cc(/C=C(/C(=O)N(C)C)c2ccc(Oc3ccc(CC(C(N)=O)C(N)=O)cc3)cc2)cc(OC)c1 [Compound 59, 2-(4-{4-[2-(3,5-dimethoxyphenyl)-1-dimethylcarbamoylvinyl]-phenoxy}-benzyl)-malonamide]
inhibition at 0.3 µM [14]: 27% | inhibition at 3 µM [14]: 69% | inhibition at 30 µM [14]: 80%

COc1cc(/C=C(/C(=O)N(C)C)c2ccc(Oc3ccccn3)cc2)cc(OC)c1 [Compound 66, 3-(3,5-dimethoxyphenyl)-N,N-dimethyl-2-[4-(pyridin-2-yloxy)-phenyl]-acrylamide]
inhibition at 0.3 µM [14]: 27% | inhibition at 3 µM [14]: 53% | inhibition at 30 µM [14]: 84%

COc1cc(/C=C(/C(=O)N(C)C)c2ccc(NC(=O)c3ccccc3)cc2)cc(OC)c1 [Compound 67, N-{4-[2-(3,5-dimethoxyphenyl)-1-dimethylcarbamoylvinyl]-phenyl}-benzamide]
inhibition at 0.3 µM [14]: 40% | inhibition at 3 µM [14]: 62% | inhibition at 30 µM [14]: 89%

CCOC(=O)CCc1ccc(Oc2ccc(C(=Cc3ccc4c(c3)OCO4)C(=O)N(C)C)cc2)cc1 [Compound 69, 3-{4-[4-(2-benzo[1,3]dioxol-5-yl-1-dimethylcarbamoylvinyl)-phenoxy]-phenyl}-propionic acid ethyl ester]
inhibition at 0.3 µM [14]: 1% | inhibition at 3 µM [14]: 22% | inhibition at 30 µM [14]: 50%

CN(C)C(=O)/C(=C/c1cccnc1)c1ccc(Oc2ccc(CC(C(N)=O)C(N)=O)cc2)cc1 [Compound 71, 2-{4-[4-(1-dimethylcarbamoyl-2-pyridin-3-ylvinyl)-phenoxy]-benzyl}-malonamide]
inhibition at 0.3 µM [14]: 20% | inhibition at 3 µM [14]: 47% | inhibition at 30 µM [14]: 65%

CN(C)C(=O)/C(=C/c1cccnc1)c1ccc(Oc2ccc(CCC(=O)NC(N)=O)cc2)cc1 [Compound 73, N,N-dimethyl-2-{4-[4-(3-oxo-3-ureidopropyl)-phenoxy]-phenyl}-3-pyridin-3-yl-acrylamide]
inhibition at 0.3 µM [14]: 30% | inhibition at 3 µM [14]: 62% | inhibition at 30 µM [14]: 81%

CN(C)C(=O)/C(=C/c1cccnc1)c1ccc(Oc2ccc(CCC(N)=O)cc2)cc1 [Compound 77, 2-{4-[4-(2-carbamoyl-ethyl)-phenoxy]-phenyl}-N,N-dimethyl-3-pyridin-3-yl-acrylamide]
Percent TNF Production (Mean ± SEM) ([17]; 50 mg/kg oral): 54 ± 10% | Percent TNF Production (Mean ± SEM) ([17]; 100 mg/kg oral): 67 ± 20% | inhibition of LPS-induced TNF-alpha production in mice [17]: significantly inhibited

CN(Cc1cnc2nc(N)nc(N)c2n1)c1ccc(C(=O)N[C@@H](CCC(=O)O)C(=O)O)cc1 [Methotrexate, methotrexate, reference compound]
Percent TNF Production (Mean ± SEM) ([17]; 10 mg/kg oral): 61 ± 5%
